pIC50: −log10 of the molar value.
Tested on: washed platelets
Assay: Washed Platelet Aggregation (WPA), CD9 antibody-induced
Type: cell-based
Details: washed platelets from healthy volunteers, aggregation induced by mouse anti-human CD9 antibody
Method: Blood was collected from healthy volunteers by venipuncture using a Venflon needle 1.5*45 mm (17 GA, 1.77 IN). The first 2 ml of blood was discarded prior to collecting aliquotes into tubes containing acid citrate dextrose (ACD). One volume of ACD is required for six volumes of blood.
The anticoagulated blood was centrifuged for 15 min at 240×g to obtain platelet rich plasma (PRP). PRP was transferred to a new tube and centrifuged for 15 min at 2200×g. The supernatant was discarded and the platelet pellet re-suspended to […] in Tyrodes buffer (TB) containing 1 μM hirudin and 0.02 U/mL apyrase. The platelet suspension was left to rest at room temperature for 30 min. Just prior to time for assay, CaCl2 was added to a final concentration of 2 mM. The Compound, or wortmannin, was dissolved in DMSO and added to a 96 well plate prior to the addition of the washed platelet suspension. The platelet suspension was preincubated with inhibitor for 5 min. Light absorption at 650 nm was recorded before and after a 5 min plate shake and referred to as recording 0 (R0) and R1. A mouse anti-human CD9 antibody was added (at a donor specific concentration) to each well prior to next 10 min plate shake and light absorption recording; R2.
A concentration response for CD9 antibody-induced aggregation in the absence or presence of 1 μM wortmannin (complete PI3K inhibition) was performed in each washed platelet suspension prior to testing of the Compound. The CD9 antibody concentration with the largest dependence of PI3K inhibition was chosen for the test.
Light absorbance in wells with TB were subtracted from all readings before percent aggregation was calculated according the formula: [(R1−R2)/R1]×100=% aggregation. Spontaneous aggregation or pro-aggregatory effect of the inhibitor was evaluated by the same formula, [(R0−R1)/R0]×100=% aggregation.

SMILES | pIC50 (Homo sapiens, Platelet) | pIC50
Cc1cc(C(C)Nc2ccccc2C(=O)O)c2nc(N3CCOCC3)cc(=O)n2c1 (racemic) [WO2004016607, 2-[1-(7-Methyl-2-(morpholin-4-yl)-4-oxo-4H-pyrido[1,2-α]pyrimidin-9-yl)ethylamino]benzoic acid, reference compound] | 8.00 | 
Cc1cc(C(C)Nc2ccccc2C(=O)O)c2nc(N3CCOCC3)cc(=O)n2c1 (single isomer, unassigned; (+)) [Ex. 2, (+) 2-[1-(7-Methyl-2-(morpholin-4-yl)-4-oxo-4H-pyrido[1,2-a]pyrimidin-9-yl)ethylamino]benzoic acid] |  | 5.78
Cc1cc(C(C)Nc2ccccc2C(=O)O)c2nc(N3CCOCC3)cc(=O)n2c1 (single isomer, unassigned; (-)) [Ex. 1, (−) 2-[1-(7-Methyl-2-(morpholin-4-yl)-4-oxo-4H-pyrido[1,2-a]pyrimidin-9-yl)ethylamino]benzoic acid] |  | 8.22
